T1: WASp (Homo sapiens, UniProt P42768)
T1 construct: expressed in transfected cells; host or cells: 293T cells, calcium-phosphate transfection
T1 sequence (P42768 1-502): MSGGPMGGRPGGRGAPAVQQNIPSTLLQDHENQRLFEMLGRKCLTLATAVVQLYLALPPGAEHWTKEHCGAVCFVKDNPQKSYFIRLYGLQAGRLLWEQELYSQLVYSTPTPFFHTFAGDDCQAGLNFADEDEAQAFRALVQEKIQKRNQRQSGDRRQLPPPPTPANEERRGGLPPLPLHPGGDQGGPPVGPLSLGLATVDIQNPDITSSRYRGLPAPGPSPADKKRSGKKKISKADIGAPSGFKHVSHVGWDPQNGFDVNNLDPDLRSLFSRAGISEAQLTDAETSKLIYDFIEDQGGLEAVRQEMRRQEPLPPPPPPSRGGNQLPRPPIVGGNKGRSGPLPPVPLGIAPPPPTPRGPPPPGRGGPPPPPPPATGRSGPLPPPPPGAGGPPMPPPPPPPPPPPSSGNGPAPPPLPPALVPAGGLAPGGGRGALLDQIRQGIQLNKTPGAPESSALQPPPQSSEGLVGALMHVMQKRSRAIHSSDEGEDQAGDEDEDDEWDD


Assays:
WASp [1] = biological target: T1, WASp; test: YFP-WASp expression in 293T cells treated with compounds, densitometric Western blot analysis; assay type: cell-based; conditions: for effect on WASp expression in cells: 293T cells transfected with YFP-WASp; for Relative expression: YFP-WASp expression in transfected 293T cells relative to DMSO solvent control, compound 10-80 μM, overnight
Description: Compounds were obtained and from ChemBridge Corporation. San Diego, Calif., USA. Of the compounds obtained, 14 were considered potential agents for modulating WASp expression, by their potential to bind to WASp. The 14 compounds were tested in 293T cells using the following procedure.
The compounds were individually dissolved in DMSO to make a stock solution of 20 millimolar (mM) and kept stored at −20° C. 293T cells were prepared to mid log phase, ˜60-80% confluence, and were transfected with 15 μg of yellow-fluorescent protein, YFP-WASp plasmid (6023), using a Calcium-phosphate transfection protocol. Cells were collected and counted. 1-2×10^6 cells per sample in 6-well supplemented with 2-4 ml complete (10% FCS) DMEM medium (0.5×10^6 cells/ml). Cells were plated in 6 wells (0.5×10^6 cells/ml×Number of samples) and pre-incubate at 37°, 5% CO2 for at least 4 h (for the cells to adhere. 1 ml of the medium in which the cells were grown is taken, and added to the compound (10-80 μM). The medium, with the compound, was added back to the cells in the plate, drop-wise. Cells were incubated overnight at 37° C., 5% CO2. Densitometric analysis of YFP-WASp expression in the cells treated with the compounds, using Western blot analysis. The compounds with a relative 1.5-fold change (either increase or decrease) of expression relative cells which were exposed to DMSO solvent control, are listed in table 2 below. Table 2 lists the compounds' modulation of WASp expression levels as a function of relative expression of WASp in relation to control.

WASp [2] = test: WASp gene silencing by siRNA in T cell leukemic cells, Western blot; assay type: cell-based
Description: As shown in the previous examples, WASp is overexpressed in malignant cells. Gene silencing of WASp expression using siRNA was tested. WASp was silenced using commercially available siRNA oligonucleotides. A mixture of the following oligonucleotides, each in the form of double-stranted siRNA duplex with its corresponding sequence at an amount of 500 pico-mole was introduced to 1×10^7 cells:
These experiments were performed in T cell leukemic cells. Silencing efficiency of about 90% was achieved 48 hours after transfection, when compared to non-specific (N.S) siRNA-treated cells.
A number of siRNA duplexes were tested in cells as in example 1E. The following double-stranded siRNA sequences were used: SEQ ID NO. 1 and its complementary sequence; SEQ ID NO. 2 and its complementary sequence; SEQ ID NO. 3 and its complementary sequence; SEQ ID NO. […] and its complementary sequence (designated as 1-4). 500 picomole of each double-stranded siRNA was used. In addition, a nonsense siRNA sequence (designated as “N.S. siRNA”) was used as a control. Control N.S. siRNA was made from 125 duplexes of each of the siRNA molecules in Table 5:
In addition, a mixture of the siRNAs comprising SEQ ID NOS. 1-4 (designated as “Mix”) was also used, comprising 125 picomole of each. Upon analysis with Western blot, it was shown that all siRNA duplexes were effective in downregulating WASp, with the siRNA of SEQ. ID NO.

Molecule	effect on WASp expression in cells (WASp [1])	Relative expression (WASp [1])	downregulating WASp (WASp [2]; Western blot, 500 picomole double-stranded siRNA, cells as in example 1E, FIG. 2)	Silencing efficiency (WASp [2]; 48 hours after transfection, T cell leukemic cells, 500 pico-mole to 1×10^7 cells, compared to non-specific (N.S) siRNA-treated cells)
COc1ccccc1-c1cccc(C(=O)NC(C)Cc2ccccn2)c1 (centres unmarked) [Compound 14, 2′-methoxy-N-(1-methyl-2-pyridin-2-ylethyl)biphenyl-3-carboxamide]	effective in decreasing WASp expression	0.5		
CC(C)c1n[nH]c2c1CN(C(=O)c1cccc(C#CC(C)(C)O)c1)CC2 [Compound 10, 4-{3-[(3-isopropyl-1,4,6,7-tetrahydro-5H-pyrazolo[4,3-c]pyridin-5-yl)carbonyl]phenyl}-2-methylbut-3-yn-2-ol]	effective in decreasing WASp expression	0.6		
COCC1CCN(c2ccc(C(=O)N3CCC(N4CCOCC4)CC3)cn2)C1 (centres unmarked) [Compound 4, 4-[1-({6-[3-(methoxymethyl)pyrrolidin-1-yl]pyridin-3-yl}carbonyl)piperi-din-4-yl]morpholine]	increase WASp expression	1.5		
Cc1cc(C)n(C2CCN(C(=O)c3cc(COc4ccccc4)[nH]n3)C2)n1 (centres unmarked) [Compound 7, 3,5-dimethyl-1-(1-{[5-(phenoxy-methyl)-1H-pyrazol-3-yl]carbonyl}pyrrolidin-3-yl)-1H-pyrazole]	increase WASp expression	2.1		
COc1ccc(CN2C(=O)N(CC(C)C)C3(CCN(C4Cc5ccccc5C4)CC3)C2=O)cc1 [Compound 13, 8-(2,3-dihydro-1H-inden-2-yl)-1-isobutyl-3-(4-methoxy-benzyl)-1,3,8-triazaspiro[4.5] decane-2,4-dione]	effective in decreasing WASp expression	0.3		
CC(=O)N[C@H]1C[C@@H](c2ccc3c(c2)nnn3C)O[C@@H](c2ccc(Cl)cc2)C1 [Compound 6, N-[(2R,4R,6S)-2-(4-chloro-phenyl)-6-(1-methyl-1H-1,2,3-benzotriazol-5-yl)tetrahydro-2H-pyran-4-yl]acetamide]	increase WASp expression	6.7		
N.S. siRNA: nonsense siRNA control made from duplexes of SEQ ID NO. 9-12 (Table 5) (nucleic acid, listed as RNA, chemistry not given here) chain 1: UAGCGACUAAACACAUCAAUAGGCUAUGAAGAGAUAC chain 2: AUGUAUUGGCCUGUAUUAG chain 3: AUGAACGUGAAUUGCUCAA chain 4: UGGUUUACAUGUCGACUAA			ineffective in downregulating WASp	
Mix: mixture of the double-stranded siRNA duplexes of SEQ ID NOS. 1-4 (nucleic acid, listed as RNA, chemistry not given here) chain 1: UGACUGAGUGGCUGAGUUA chain 2: GACCUAGCCCAGCUGAUAA chain 3: GAAUGGAUUUGACGUGAAC chain 4: GCCGAGACCUCUAAACUUA				about 90%

Source: US10765631B2, “Liposomes for modulating Wiskott-Aldrich syndrome protein” (BAR-ILAN UNIVERSITY, priority 2013, dated 2020)
